According to the NIST ThermoML archive (doi:10.1016/j.jct.2012.02.018):

Details: Liquid; for mass density: Vibrating tube method; for viscosity: Concentric cylinders viscometry

CCCC[n+]1ccc(C)cc1.F[B-](F)(F)F [1-butyl-4-methylpyridinium tetrafluoroborate]
Details	mass density [kg/m3]	viscosity [mPa·s]
278.16 K, 101.33 kPa	1202.41	–
283.13 K, 2389 kPa	1200.77	–
283.14 K, 99418 kPa	1237.54	–
283.15 K, 101.33 kPa	–	765.72
283.15 K, 60042 kPa	1223.77	–
283.15 K, 79648 kPa	1230.82	–
283.15 K, 89923 kPa	1234.36	–
283.16 K, 49953 kPa	1219.99	–
283.16 K, 69924 kPa	1227.37	–
283.17 K, 101.33 kPa	1198.9	–
283.17 K, 20156 kPa	1208.22	–
283.17 K, 29957 kPa	1212.19	–
283.17 K, 39808 kPa	1216.08	–
283.2 K, 5533 kPa	1202.11	–
283.2 K, 10148 kPa	1204.06	–
293.13 K, 2593 kPa	1194.15	–
293.14 K, 99354 kPa	1231.77	–
293.15 K, 101.33 kPa	–	338.59
293.15 K, 69958 kPa	1221.46	–
293.15 K, 79965 kPa	1225.08	–
293.15 K, 90001 kPa	1228.6	–
293.16 K, 101.33 kPa	1191.79	–
293.16 K, 5220 kPa	1195.31	–
293.16 K, 49933 kPa	1213.87	–
293.16 K, 59929 kPa	1217.71	–
293.17 K, 10236 kPa	1197.5	–
293.17 K, 19941 kPa	1201.67	–
293.17 K, 29914 kPa	1205.84	–
293.17 K, 39693 kPa	1209.82	–
298.13 K, 101.33 kPa	1188.41	–
298.15 K, 101.33 kPa	–	236.97
298.15 K, 1003 kPa	1190.06	–
298.15 K, 5005 kPa	1191.86	–
298.15 K, 10002 kPa	1194.09	–
298.15 K, 19998 kPa	1198.45	–
298.15 K, 29945 kPa	1202.67	–
298.15 K, 39923 kPa	1206.79	–
298.15 K, 49991 kPa	1210.83	–
298.15 K, 60002 kPa	1214.72	–
298.15 K, 70001 kPa	1218.49	–
298.15 K, 79994 kPa	1222.14	–
298.15 K, 90002 kPa	1225.68	–
298.15 K, 99998 kPa	1229.1	–
303.15 K, 101.33 kPa	–	171.04
313.13 K, 101.33 kPa	1178.11	–
313.15 K, 101.33 kPa	–	96.18
313.15 K, 59740 kPa	1205.47	–
313.16 K, 2707 kPa	1180.63	–
313.16 K, 20303 kPa	1188.77	–
313.16 K, 29913 kPa	1193.03	–
313.16 K, 49943 kPa	1201.51	–
313.16 K, 69933 kPa	1209.44	–
313.16 K, 89952 kPa	1216.83	–
313.16 K, 99473 kPa	1220.15	–
313.17 K, 5339 kPa	1181.88	–
313.17 K, 10173 kPa	1184.14	–
313.17 K, 39937 kPa	1197.34	–
313.17 K, 79710 kPa	1213.11	–
323.15 K, 101.33 kPa	–	58.53
333.13 K, 1547 kPa	1166.3	–
333.13 K, 39448 kPa	1184.41	–
333.14 K, 101.33 kPa	1164.59	–
333.14 K, 49914 kPa	1188.99	–
333.14 K, 60043 kPa	1193.26	–
333.15 K, 101.33 kPa	–	38.29
333.15 K, 5146 kPa	1168.12	–
333.15 K, 29917 kPa	1180.08	–
333.15 K, 69942 kPa	1197.26	–
333.16 K, 19866 kPa	1175.35	–
333.16 K, 79463 kPa	1200.96	–
333.16 K, 89996 kPa	1204.89	–
333.17 K, 9837 kPa	1170.46	–
333.17 K, 99595 kPa	1208.3	–
343.14 K, 101.33 kPa	1157.92	–
343.15 K, 101.33 kPa	–	26.48
353.13 K, 59133 kPa	1180.36	–
353.14 K, 2498 kPa	1152.85	–
353.14 K, 5035 kPa	1154.22	–
353.14 K, 9690 kPa	1156.69	–
353.14 K, 20367 kPa	1162.21	–
353.14 K, 29942 kPa	1166.97	–
353.14 K, 39870 kPa	1171.71	–
353.14 K, 49991 kPa	1176.35	–
353.14 K, 70001 kPa	1184.93	–
353.15 K, 101.33 kPa	–	19.17
353.15 K, 89993 kPa	1192.71	–
353.16 K, 79945 kPa	1188.9	–
353.16 K, 98529 kPa	1195.8	–
363.15 K, 101.33 kPa	–	14.41
373.13 K, 59930 kPa	1168.03	–
373.14 K, 2866 kPa	1138.93	–
373.14 K, 40385 kPa	1158.91	–
373.14 K, 49993 kPa	1163.5	–
373.14 K, 69984 kPa	1172.37	–
373.15 K, 101.33 kPa	–	11.19
373.15 K, 5031 kPa	1140.17	–
373.15 K, 29936 kPa	1153.67	–
373.15 K, 79614 kPa	1176.31	–
373.15 K, 90002 kPa	1180.33	–
373.15 K, 99124 kPa	1183.64	–
373.16 K, 9772 kPa	1142.85	–
373.17 K, 20168 kPa	1148.55	–
393.14 K, 99382 kPa	1171.13	–
393.15 K, 10459 kPa	1129.2	–
393.15 K, 20029 kPa	1134.74	–
393.15 K, 90001 kPa	1167.72	–
393.16 K, 2068 kPa	1124.13	–
393.16 K, 5306 kPa	1126.11	–
393.16 K, 29942 kPa	1140.22	–
393.17 K, 39803 kPa	1145.4	–
393.17 K, 49942 kPa	1150.46	–
393.17 K, 70000 kPa	1159.64	–
393.17 K, 80173 kPa	1163.89	–
393.18 K, 59764 kPa	1155.09	–
